Measurements taken from patent US20250186403A1 (ARIZONA BOARD OF REGENTS ON BEHALF OF THE UNIVERSITY OF …, priority 2022, published 2025).
Values belong to the compound of their own block, whether it stands above or below them.

Columns and labels:
[1] = system: Cne cells; assay: Checkerboard assay with known antifungals; type: cell-based, Cryptococcus neoformans; details: for MIC: Cryptococcus neoformans, read-out: MIC Alone
Protocol: After adding Cne cells, the plates were incubated for 48 h. Well contents were mixed by pipette, and absorbance was read at 630 nm. […] Based on the FIC, the combinatorial effects are decided as in Table 2.

[2] = biological target: Split-NanoLuc-Prp8 intein protein (Cryptococcus gattii, UniProt E6R027); assay: Split nanoluciferase-Prp8 intein splicing assay; type: biochemical; details: 1 nM protein, 100 µM TCEP, 24 h; read-out: IC50, Prp8-NanoBit splicing
Protocol: TCEP is added to a final concentration of 100 µM and incubated for 24 h. The substrate Nano-Glo luciferase (Promega) was added, and the resulting luminescence was read. IC50 was calculated using GraphPad prism.
For the split nanoluciferase-Prp8 intein, in order to block the free cysteine residues, 5,5′-dithiobis-(2-nitrobenzoic) acid (DTNB) was added to 1:10 molar ratio and incubated at 4° C. for 5 min and dialyzed in 20 mM Tris, 150 mM NaCl, pH 9.0 and stored at −80° C. till further use.
The protein was diluted into 2 nM in assay buffer 20 mM tris, 150 mM NaCl with 0.1% BSA, 2 mM EDTA), and 80 μl was added to each well of 96 well plates (white, opaque). […] The plates were incubated at RT for 30 min, and 20 μl of TCEP was added to a final concentration of 100 µM. The plates were sealed to prevent evaporation. After incubating for 24 h at RT, 25 μl of the diluted (1:10,000 in assay buffer) diluted nanoluc substrate furimazine (Promega) was added. The emitted luminescence was quantified using the EnVision luminescence reader (Synergyll, Biotech). The IC50 was calculated using the GraphPad prism version 9.

[3] = single drug, ≥90% reduction of absorbance at 630 nm, 48 h

Chain of Split-NanoLuc-Prp8 intein protein (E6R027 entry or part of it): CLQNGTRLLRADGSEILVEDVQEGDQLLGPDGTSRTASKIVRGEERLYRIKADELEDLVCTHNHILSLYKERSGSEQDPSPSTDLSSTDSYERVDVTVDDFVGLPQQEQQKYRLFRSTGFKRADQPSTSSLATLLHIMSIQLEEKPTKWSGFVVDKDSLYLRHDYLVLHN

Compound: C[C@@H]1[C@H](O)[C@@H](C)/C=C/C=C/C=C/C=C/C=C/C=C/C=C/[C@H](O[C@@H]2O[C@H](C)[C@@H](O)[C@H](N)[C@@H]2O)C[C@@H]2O[C@](O)(C[C@@H](O)C[C@@H](O)[C@H](O)CC[C@@H](O)C[C@@H](O)CC(=O)O[C@H]1C)C[C@H](O)[C@H]2C(=O)O [Amphotericin B]
- MIC Comb ([1]; combination CMN + Amphotericin B, well E6): 0.14 µg/mL
- MIC Alone [1, 3]: 0.6 µg/mL

Compound: Nc1nc(=O)[nH]cc1F [5-Fluorocytosine]
- MIC [1, 3]: 4.13 µg/mL
- MIC Comb ([1]; combination CMN + 5-Fluorocytosine, well D2): 2.06 µg/mL

Compound: N.N.[Cl][Pt][Cl] [cisplatin]
- IC50 [2]: 1410 nM

The remaining lines, values ahead:

- MIC [1, 3]: 0.22 µg/mL
- MIC Comb ([1]; combination CMN + Itraconazole, well E4): 0.22 µg/mL
Compound: CCC(C)n1ncn(-c2ccc(N3CCN(c4ccc(OCC5COC(Cn6cncn6)(c6ccc(Cl)cc6Cl)O5)cc4)CC3)cc2)c1=O (stereo not drawn) [Itraconazole]

- MIC [1, 3]: 0.05 µg/mL
- MIC Comb ([1]; combination CMN + Voriconazole, well D4): 0.05 µg/mL
Compound: C[C@@H](c1ncncc1F)[C@](O)(Cn1cncn1)c1ccc(F)cc1F [Voriconazole]
